Experimental data taken from PMC10584170, “Machine learning-based phenotypic imaging to characterise the targetable biology of Plasmodium falciparum male gametocytes for the development of transmission-blocking antimalarials” (PLOS Pathogens, 2023).
Like-named read-outs stand apart in the source and are kept apart here.

What was measured:
[1] = tested on: P. falciparum gametocytes; design: method as in Almela et al 2015; details: ref Almela et al 2015; read-out: Pf Gametocyte viability (ATP) GC-ATP IC50; cited from earlier work
HepG2 cells [2] = assay: HepG2 cytotoxicity counter-screen; details: for Mean TOX: mean of the HepG2 TOX50 values
[3] = tested on: P. falciparum gametocytes; assay: P. falciparum Gametocyte Viability ATP Assay (PfGCT); type: cell-based, Plasmodium falciparum; details: Mean TOX HepG2 over GC-ATP IC50; GREEN = >10-fold; RED = <10-fold
Source text: (§1) Fig 1 The activity of TCAMS compound identified in the Pf DGFA screen. (A) 85 molecules were confirmed active in the Pf DGFA. 58 were previously identified in one or more transmission-blocking screens. […] No molecule was identified with >4.7-fold greater activity against female gametocytes. Abbreviations (IC50 = concentration giving 50% inhibition, PbODA = P. berghei Ookinete Development Assay, PfDGFA = P. falciparum Dual Gamete Formation Assay, PfFGAA = P. falciparum Female Gametocyte Activation Assay, PfGCT = P. falciparum Gametocyte Viability ATP Assay).

[4] = tested on: P. falciparum male gametocytes; assay: P. falciparum Dual Gamete Formation Assay (PfDGFA), male readout (exflagellation); type: cell-based, Plasmodium falciparum NF54; details: for IC50: this study, read-out: Pf DGFA IC50 MALE
Summary of the method: (§2)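 Male and female gamete formation were quantified by microscopy image analysis following 24 h incubation of mature NF54 gametocytes with compound and activation at 28°C with xanthurenic acid.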

HepG2 cells [5] = details: cited from earlier work
[6] = tested on: P. falciparum female gametocytes; design: method as in Miguel-Blanco et al 2017; details: ref Miguel-Blanco et al 2017; read-out: Pf female gametogenesis FGAA IC50; cited from earlier work
[7] = tested on: P. falciparum female gametocytes; assay: P. falciparum Female Gametocyte Activation Assay (PfFGAA); type: cell-based, Plasmodium falciparum; details: Mean TOX HepG2 over FGAA IC50; GREEN = >10-fold; RED = <10-fold
[8] = tested on: P. falciparum female gametocytes; assay: P. falciparum Dual Gamete Formation Assay (PfDGFA), female readout (Pfs25-positive female gametes); type: cell-based, Plasmodium falciparum NF54; details: for IC50: this study, read-out: Pf DGFA IC50 FEM
Summary of the method: as §2

[9] = tested on: P. berghei ookinete development; assay: P. berghei Ookinete Development Assay (PbODA); type: cell-based, Plasmodium berghei; details: Mean TOX HepG2 over Pb ODA value; GREEN = >10-fold; RED = <10-fold
Source text: as §1

Br.c1cc(Nc2nc(-c3ccc(-c4csc(Nc5ccncc5)n4)cc3)cs2)ccn1 [TC35]
IC50 [1]: 260 nM
Mean TOX (HepG2 cells [2]): 8.03 µM
Cytotox ratio Pf GC-ATP [3]: 30.9
Cytotox ratio Pf Male [4]: 26.8
IC50 [4]: 300 nM
FGAA TOX50 HepG2 (HepG2 cells [5]): 2.26 µM
GC-ATP TOX50 HepG2 (HepG2 cells [5]): 17.3 µM
IC50 [6]: 30 nM
Cytotox ratio Pf FGAA [7]: 267.7
Cytotox ratio Pf Female [8]: 26.8
IC50 [8]: 300 nM

C=CCN(C(=O)c1ccc(Cl)c([N+](=O)[O-])c1)c1nc(-c2ccccc2)cs1 [TC38]
IC50 [1]: 110 nM
Mean TOX (HepG2 cells [2]): 50.86 µM
Cytotox ratio Pf GC-ATP [3]: 462.3
Cytotox ratio Pf Male [4]: 127.1
IC50 [4]: 400 nM
FGAA TOX50 HepG2 (HepG2 cells [5]): 100 µM
GC-ATP TOX50 HepG2 (HepG2 cells [5]): 25 µM
IC50 [6]: 130 nM
Cytotox ratio Pf FGAA [7]: 391.2
Cytotox ratio Pf Female [8]: 164.1
IC50 [8]: 310 nM

c1ccc2sc(Sc3ncnc4sccc34)nc2c1 [TC45]
IC50 [1]: 500 nM
DGFA Tox50 HepG2 (HepG2 cells [2]; HepG2 value reported with the DGFA screen): 100 µM
Mean TOX (HepG2 cells [2]): 75.00 µM
Cytotox ratio Pf GC-ATP [3]: 150.0
Cytotox ratio Pf Male [4]: 250.0
IC50 [4]: 300 nM
FGAA TOX50 HepG2 (HepG2 cells [5]): 100 µM
GC-ATP TOX50 HepG2 (HepG2 cells [5]): 25 µM
IC50 [6]: 140 nM
Cytotox ratio Pf FGAA [7]: 535.7
Cytotox ratio Pf Female [8]: 258.6
IC50 [8]: 290 nM

O=c1c(Br)ccccc1Br [TC48]
IC50 [1]: 210 nM
Mean TOX (HepG2 cells [2]): 11.45 µM
Cytotox ratio Pb Ookinete [9]: 10834.6
Cytotox ratio Pf GC-ATP [3]: 54.5
Cytotox ratio Pf Male [4]: 76.3
IC50 [4]: 150 nM
GC-ATP TOX50 HepG2 (HepG2 cells [5]): 12.6 µM
ODA TOX50 HepG2 (HepG2 cells [5]): 14.791 µM
Cytotox ratio Pf Female [8]: 104.1
IC50 [8]: 110 nM

Cc1sc2ncnc(Sc3nnc(N)s3)c2c1C [TC60]
IC50 [1]: 300 nM
Mean TOX (HepG2 cells [2]): 42.45 µM
Cytotox ratio Pf GC-ATP [3]: 141.5
Cytotox ratio Pf Male [4]: 30.1
IC50 [4]: 1410 nM
FGAA TOX50 HepG2 (HepG2 cells [5]): 36.31 µM
GC-ATP TOX50 HepG2 (HepG2 cells [5]): 25 µM
IC50 [6]: 770 nM
Cytotox ratio Pf FGAA [7]: 55.1
Cytotox ratio Pf Female [8]: 57.4
IC50 [8]: 740 nM
